# Test results taken from patent publication US20220213092A1, “BICYCLIC PYRAZOLE BRUTON'S TYROSINE KINASE INHIBITORS” (AbbVie Inc., priority 2020, published 2022).
# Target: T1, BTK (Homo sapiens, UniProt Q06187)
# T1 construct: purchased Nanosyn, Santa Clara, Calif; host or cells: 293HEK
# Assay: BTK kinase electrophoretic mobility shift assay (MSA)
# Format: biochemical
# Conditions: 50 μM ATP, 0.5 nM BTK enzyme (Nanosyn-293HEK, WT), 3 hours at 25° C.; all examples except 50, 51, 62 and 63; read-out: BTK IC50
# Protocol: Kinase activity, unless otherwise indicated, was measured in vitro using an electrophoretic mobility shift assay (MSA). The phosphorylation of a peptide substrate by BTK and other kinases was measured. The kinase reactions were assembled in a total volume of 25 μL per well in 384 well plates. The following was added to each well: compound buffer (or control); enzyme buffer; and substrate buffer, as further described below.
# The terminated reactions were analyzed using a 12 channel LABCHIP® 3000 microfluidic detection instrument (available from Caliper Life Sciences, Waltham, Mass.). […] Change in the relative fluorescence intensity of the substrate and product peaks was the parameter measured, reflecting enzyme activity. In the presence of an inhibitor, the ratio between product and substrate was altered. The signal of the product decreased, while the signal of the substrate increased. Capillary electrophoregrams (RDA acquisition files) were analyzed using HTS Well Analyzer software (available from Caliper Life Sciences, Waltham, Mass.).
# Activity in each sample was determined as the product to sum ratio (PSR): P/(S+P), where P was the peak height of the product peptide and S was the peak height of the substrate peptide. For each compound, enzyme activity was measured at various concentrations (12 concentrations of compound spaced by 3× dilution intervals). Negative control samples (00 inhibition in the absence of inhibitor) and positive control samples (10000 inhibition, in the presence of 20 mM EDTA) were assembled in replicates of four and were used to calculate 00 inhibition values for each inhibitor at each concentration. Percent inhibition (Pinh) was determined using following equation: Pinh=(PSR0%−PSRinh)/(PSR0%−PSR100%)*100, where PSRinh was the product sum ratio in the presence of inhibitor, PSR0% was the average product sum ratio in the absence of inhibitor and PSR100% was the average product sum ratio in 100%−inhibition control samples.
# The IC50 values of inhibitors were determined by 4 parameter sigmoidal dose response model fitting of the inhibition curves (Pinh versus inhibitor concentration) using XLfit® 4 software (available from IDBS, Boston, Mass.).
# T1 sequence (Q06187 whole entry): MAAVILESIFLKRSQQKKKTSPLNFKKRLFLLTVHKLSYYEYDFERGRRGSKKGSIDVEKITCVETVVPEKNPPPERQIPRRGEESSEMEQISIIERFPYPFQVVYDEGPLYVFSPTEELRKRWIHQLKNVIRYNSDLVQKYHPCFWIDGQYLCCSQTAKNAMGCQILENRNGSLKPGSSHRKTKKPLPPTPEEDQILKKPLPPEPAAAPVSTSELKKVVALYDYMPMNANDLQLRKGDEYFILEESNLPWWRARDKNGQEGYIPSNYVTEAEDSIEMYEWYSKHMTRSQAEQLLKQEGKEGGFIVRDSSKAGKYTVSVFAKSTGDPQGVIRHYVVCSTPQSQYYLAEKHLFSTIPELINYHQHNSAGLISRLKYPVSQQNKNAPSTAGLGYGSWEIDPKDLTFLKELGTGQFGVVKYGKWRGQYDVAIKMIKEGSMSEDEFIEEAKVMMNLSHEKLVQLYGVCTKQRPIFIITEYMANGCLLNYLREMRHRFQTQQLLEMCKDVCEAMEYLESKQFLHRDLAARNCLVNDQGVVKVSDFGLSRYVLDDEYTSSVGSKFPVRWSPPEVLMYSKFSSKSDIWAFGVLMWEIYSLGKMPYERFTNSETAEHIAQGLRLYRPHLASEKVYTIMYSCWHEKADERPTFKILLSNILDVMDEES
row,Compound,IC50 [µM]
1,"C=CC(=O)N1CCC([C@H]2CCNc3c2nn(-c2ccc(Oc4ccccc4)cc2)c3C(N)=O)CC1 [Example 4, (7R)-2-(4-phenoxyphenyl)-7-[1-(prop-2-enoyl)piperidin-4-yl]-4,5,6,7-tetrahydro-2H-pyrazolo[4,3-b]pyridine-3-carboxamide]",0.000331
2,"C=CC(=O)N1CCC(C2CCNc3c2nn(-c2ccc(Oc4ccc(Cl)cc4)cc2)c3C(N)=O)CC1 (stereo not drawn) [Example 28, 2-[4-(4-chlorophenoxy)phenyl]-7-[1-(prop-2-enoyl)piperidin-4-yl]-4,5,6,7-tetrahydro-2H-pyrazolo[4,3-b]pyridine-3-carboxamide]",0.00466
3,"C/C=C/C(=O)N1CCN([C@@H]2CCNc3c2nn(-c2ccc(Oc4ccccc4)cc2)c3C(N)=O)CC1 [Example 47, (7R)-7-{4-[(2E)-but-2-enoyl]piperazin-1-yl}-2-(4-phenoxyphenyl)-4,5,6,7-tetrahydro-2H-pyrazolo[4,3-b]pyridine-3-carboxamide]",0.819
4,"CC#CC(=O)N1CCN([C@H]2CCNc3c2nn(-c2ccc(Oc4ccccc4)cc2)c3C(N)=O)CC1 (single isomer, unassigned) [Example 39]",0.0058
5,"C=CC(=O)N1CCC([C@@H]2CCNc3c2nn(-c2ccc(Oc4ccc(F)cc4F)cc2)c3C(N)=O)CC1 [Example 29, (7S)-2-[4-(2,4-difluorophenoxy)phenyl]-7-[1-(prop-2-enoyl)piperidin-4-yl]-4,5,6,7-tetrahydro-2H-pyrazolo[4,3-b]pyridine-3-carboxamide]",0.0242
6,"C=CC(=O)N1CC2CC(C1)N2C1CCNc2c1nn(-c1ccc(Oc3ccccc3)cc1)c2C(N)=O (stereo not drawn) [Example 41, 2-(4-phenoxyphenyl)-7-[3-(prop-2-enoyl)-3,6-diazabicyclo[3.1.1]heptan-6-yl]-4,5,6,7-tetrahydro-2H-pyrazolo[4,3-b]pyridine-3-carboxamide]",0.0158
7,"C=CC(=O)N1C[C@H](C)N(C2CCNc3c2nn(-c2ccc(Oc4ccccc4)cc2)c3C(N)=O)C[C@H]1C (stereo partly drawn) [Example 18, 7-[(2S,5R)-2,5-dimethyl-4-(prop-2-enoyl)piperazin-1-yl]-2-(4-phenoxyphenyl)-4,5,6,7-tetrahydro-2H-pyrazolo[4,3-b]pyridine-3-carboxamide]",0.678
8,"C=CC(=O)N1CCC[C@H]([C@@H]2CCNc3c2nn(-c2ccc(Oc4ccccc4)cc2)c3C(N)=O)C1 (racemic) [Example 8, (7SR)-2-(4-phenoxyphenyl)-7-[(3RS)-1-(prop-2-enoyl)piperidin-3-yl]-4,5,6,7-tetrahydro-2H-pyrazolo[4,3-b]pyridine-3-carboxamide]",0.0047
9,"C=CC(=O)N1CCN([C@H]2CCNc3c2nn(-c2ccc(Oc4ccc(OC)cc4)cc2)c3C(N)=O)CC1 [Example 99, (7S)-2-[4-(4-methoxyphenoxy)phenyl]-7-[4-(prop-2-enoyl)piperazin-1-yl]-4,5,6,7-tetrahydro-2H-pyrazolo[4,3-b]pyridine-3-carboxamide]",0.136
10,"C=CC(=O)N1CCN([C@H]2CCNc3c2nn(-c2ccc(Oc4ccccc4OC(F)(F)F)cc2)c3C(N)=O)CC1 [Example 100, (7S)-7-[4-(prop-2-enoyl)piperazin-1-yl]-2-{4-[2-(trifluoromethoxy)phenoxy]phenyl}-4,5,6,7-tetrahydro-2H-pyrazolo[4,3-b]pyridine-3-carboxamide]",0.0463
11,"C=CC(=O)N1CCC(C2CCNc3c2nn(-c2ccc(Oc4ccccc4)cc2)c3C(N)=O)C1 (mixture of isomers) [Example 10, 2-(4-phenoxyphenyl)-7-[1-(prop-2-enoyl)pyrrolidin-3-yl]-4,5,6,7-tetrahydro-2H-pyrazolo[4,3-b]pyridine-3-carboxamide]",0.00378
12,"C=CC(=O)N1CCN(C2CCNc3c2nn(-c2ccc(Oc4ccccc4)cc2Cl)c3C(N)=O)CC1 (stereo not drawn) [Example 52, 2-(2-chloro-4-phenoxyphenyl)-7-[4-(prop-2-enoyl)piperazin-1-yl]-4,5,6,7-tetrahydro-2H-pyrazolo[4,3-b]pyridine-3-carboxamide]",0.0333
13,"C=CC(=O)N1CCN([C@H]2CCNc3c2nn(-c2ccc(Oc4ccc(OC(F)(F)F)cc4)cc2)c3C(N)=O)CC1 [Example 102, (7S)-7-[4-(prop-2-enoyl)piperazin-1-yl]-2-{4-[4-(trifluoromethoxy)phenoxy]phenyl}-4,5,6,7-tetrahydro-2H-pyrazolo[4,3-b]pyridine-3-carboxamide]",> 1
14,"C=CC(=O)N1CCN([C@H]2CCNc3c2nn(-c2ccc(Oc4ccccc4)cc2)c3C(N)=O)[C@@H](C)C1 (single isomer, unassigned) [Example 31]",0.0883
15,"C=CC(=O)N1CCC(C2CCNc3c2nn(-c2ccc(Oc4ccccc4)cc2OC)c3C(N)=O)CC1 (stereo not drawn) [Example 14, 2-(2-methoxy-4-phenoxyphenyl)-7-[1-(prop-2-enoyl)piperidin-4-yl]-4,5,6,7-tetrahydro-2H-pyrazolo[4,3-b]pyridine-3-carboxamide]",0.0375
16,"C=CC(=O)N1CCN([C@H]2CCNc3c2nn(-c2ccc(Oc4cccc(OC(F)(F)F)c4)cc2)c3C(N)=O)CC1 [Example 101, (7S)-7-[4-(prop-2-enoyl)piperazin-1-yl]-2-{4-[3-(trifluoromethoxy)phenoxy]phenyl}-4,5,6,7-tetrahydro-2H-pyrazolo[4,3-b]pyridine-3-carboxamide]",0.0641
17,"C=CC(=O)N1CCN([C@H]2CCNc3c2nn(-c2ccc(Oc4cccc(C)c4)cc2)c3C(N)=O)CC1 [Example 95, (7S)-2-[4-(3-methylphenoxy)phenyl]-7-[4-(prop-2-enoyl)piperazin-1-yl]-4,5,6,7-tetrahydro-2H-pyrazolo[4,3-b]pyridine-3-carboxamide]",0.0141
18,"C=CC(=O)N1CCN(C2CCNc3c2nn(-c2ccc(Oc4ccc(F)cc4F)cc2)c3C(N)=O)CC1 (stereo not drawn) [Example 36, 2-[4-(2,4-difluorophenoxy)phenyl]-7-[4-(prop-2-enoyl)piperazin-1-yl]-4,5,6,7-tetrahydro-2H-pyrazolo[4,3-b]pyridine-3-carboxamide]",0.0142
19,"C=CC(=O)N1CCN([C@H]2CCNc3c2nn(-c2ccc(Oc4ccccc4C)cc2)c3C(N)=O)CC1 [Example 94, (7S)-2-[4-(2-methylphenoxy)phenyl]-7-[4-(prop-2-enoyl)piperazin-1-yl]-4,5,6,7-tetrahydro-2H-pyrazolo[4,3-b]pyridine-3-carboxamide]",0.0235
20,"C=CC(=O)N1C[C@@H]2C[C@H]1CN2C1CCNc2c1nn(-c1ccc(Oc3ccccc3)cc1)c2C(N)=O (stereo partly drawn) [Example 34, 2-(4-phenoxyphenyl)-7-[(1S,4S)-5-(prop-2-enoyl)-2,5-diazabicyclo[2.2.1]heptan-2-yl]-4,5,6,7-tetrahydro-2H-pyrazolo[4,3-b]pyridine-3-carboxamide]",0.0125
21,"CC#CC(=O)N1CCN([C@@H]2CCNc3c2nn(-c2ccc(Oc4ccccc4)cc2)c3C(N)=O)CC1 (single isomer, unassigned) [Example 40]",0.0486
22,"C=CC(=O)N1C[C@H]2C[C@@H]1CN2C1CCNc2c1nn(-c1ccc(Oc3ccccc3)cc1)c2C(N)=O (stereo partly drawn) [Example 33, 2-(4-phenoxyphenyl)-7-[(1R,4R)-5-(prop-2-enoyl)-2,5-diazabicyclo[2.2.1]heptan-2-yl]-4,5,6,7-tetrahydro-2H-pyrazolo[4,3-b]pyridine-3-carboxamide]",0.0248
23,"CC#CC(=O)N1CCN(C2CCNc3c2nn(-c2ccc(Oc4ccccc4)cc2)c3C(N)=O)CC1 (stereo not drawn) [Example 27, 7-[4-(but-2-ynoyl)piperazin-1-yl]-2-(4-phenoxyphenyl)-4,5,6,7-tetrahydro-2H-pyrazolo[4,3-b]pyridine-3-carboxamide]",0.126

# Target: T2, Phosphorylation of Y223 of BTK (Homo sapiens, UniProt Q06187)
# T2 construct: host or cells: healthy human whole blood, 3 donors
# Assay: Whole blood compound screening, phosphorylation of Y223 site of BTK (MSD assay)
# Format: cell-based
# Conditions: healthy human whole blood, 2 hours at 37° C., 3 separate donors; read-out: WB BTK-pY223 EC50
# Protocol: Healthy human whole blood (WB) was collected from […]™ Technologies or […]® in sodium heparinized tubes. Whole blood was stored at ambient temperature to avoid coagulation. Each compound was tested in 3 separate donors. Compound stock solutions (10 mM) were used to generate dose titration (8 concentrations, starting concentration 10 μM, 1:4 dilution) in appropriate volume of dimethyl sulfoxide (0.2%). Whole blood was incubated with compounds in 96-well plates for 2 hours in tissue culture incubators at 37° C. under a 5% CO2 atmosphere. The whole blood was lysed in equal volume of lysis buffer (Cell Signaling Technology®, Danvers, Mass.) containing complete protease inhibitor tablet, PhosSTOP™ tablet, sodium orthovanadate and sodium fluoride and phenylmethanesulfonyl fluoride solution. The lysed whole blood was then frozen at −80° C. for overnight.
# Phosphorylation of Y223 of BTK was measured using an MSD assay (Meso Scale Diagnostics, LLC, Rockville, Md.). The thawed lysed whole blood was incubated with the capturing antibody rabbit anti-human BTK (D3H5) (Cell Signaling Technology, Danvers, Mass.) at 4° C. overnight. After washing out the unbound samples, the detection antibody biotinylated rabbit anti-pY223-BTK(D9T6H) (Cell Signaling Technology®, Danvers, Mass.) was added to the plates. After washing out the unbound antibodies, SULFO-TAG Streptavidin (Meso Scale Diagnostics, LLC, Rockville, Md.) was used for detection on Meso Sector S600 (Meso Scale Diagnostics, LLC, Rockville, Md.).
# The EC50 values were determined using software from Dotmatics. The activity of exemplary compounds is illustrated below.
# T2 sequence (Q06187 whole entry): as above
row,Compound,EC50 [µM]
1,"C=CC(=O)N1CCC([C@H]2CCNc3c2nn(-c2ccc(Oc4ccccc4)cc2)c3C(N)=O)CC1 [Example 4, (7R)-2-(4-phenoxyphenyl)-7-[1-(prop-2-enoyl)piperidin-4-yl]-4,5,6,7-tetrahydro-2H-pyrazolo[4,3-b]pyridine-3-carboxamide]",0.0357
